Laboratory results from US10688075B2 (Morgandane Scientific, LLC, priority 2018, dated 2020).
Several values for one entry are separate records, joined by “and”; a condition that tells them apart may be missing. Equal values may be shown once. Read-outs that look alike come from different tables or passages of the source.

Legend:
[1] = Plasma rivaroxaban pharmacokinetics: single 20 mg rivaroxaban alone (Period I) or with 360 mg verapamil at steady state (Period III), subjects with mild renal impairment or normal renal function
Protocol: These patients are subjected to various one-time and longitudinal pharmacokinetic (PK) and pharmacodynamic (PD) analyses. […] Cmax and AUC values for each dose are calculated. Patients also undergo a general physical exam to determine overall health and well-being.
All the pharmacokinetic and pharmacodynamics analyses are repeated on patients receiving this treatment.
Subjects with either mild renal impairment or with normal renal function were enrolled.
Renal function of the subjects was determined by measuring creatinine clearance (CLcr) rates. Subjects who had CLcr≥90 mL/min were categorized as having normal renal function whereas subjects who had CLcr 50-79 mL/min were categorized as mildly renally impaired. Blood samples were collected and processed according to the standard protocols.

[2] = Drug-drug interaction study of oral verapamil and 0.5-2.5 mg rivaroxaban (Example 4); format: in vivo, human; conditions: 0.5-2.5 mg rivaroxaban with verapamil (100-480 mg)
Protocol: A control study is performed to determine the presence of DDIs in patients treated with oral verapamil and rivaroxaban (without aspirin). […]. A representative example of a sample study is found in Example 1.

[3] = Risk of major bleeding from steady state rivaroxaban AUC (FIG. 5); format: in vivo, human
Protocol: See Center for Drug Evaluation and Research, Application No. 022406Orig1s000, Clinical Pharmacology and Biopharmaceutics Review(s), at page 36, which is hereby incorporated by reference in its entirety.
Group “c” represents the average of the three subjects in Group “b” who had the highest AUCinf, which was about 8,143 μg·hr/L. The risk of major bleeding of the subjects in Group “c” were at least 5 times higher compared to the populations in Group “a” and not even visible on this scale.

[4] = in vivo; cited from earlier work
Factor Xa = molecular target: T1, Factor Xa (Homo sapiens, UniProt P00742); test: Factor Xa activity after rivaroxaban with or without verapamil; format: in vivo
T1 construct: host or cells: human subjects
Source text: (§1) Additional pharmacodynamic metrics are also gathered for each patient, including, but not limited to: prothrombin time (using the STA® Neoplastin® method) and Factor Xa activity. Protocols for each of these analyses have been described in Nielsen et al 2015. Renal Function and non-vitamin K oral anticoagulants in comparison with warfarin on safety and efficacy outcomes in atrial fibrillation patients: a systemic review and meta-regression analysis.

[5] = cited from earlier work
Prothrombin Time = test: Prothrombin time (STA Neoplastin method) after rivaroxaban with or without verapamil; format: in vivo, human
Source text: As used herein, the term “prothrombin time” (PT) refers to a blood test that measures how long it takes blood to clot. In some embodiments, a prothrombin time test can be used to measure of a patient's haemostasis. In some embodiments, PT can be used to measure the effectiveness or exposure to a blood clotting drug. Persons having skill in the art sometimes interchangeably refer to a PT test as an INR. […] Additionally, PT measurements are subject to variability based on the test reagent and laboratory test ranges determined by each institution.
as §1, with “Protocols for each of these analyses have been described in Nielsen et al 2015.” left out
Blood samples were collected and processed according to the standard protocols.

[6] = cited from earlier work; remark: listed apart in the source
[7] = Reported rivaroxaban serious bleeding adverse events by concomitant drug; format: in vivo, human
Source text: 8, 2015, American Heart Association, Scientific Sessions 2015, and published at http://www.abstractsonline.com/pp8/#!/3795/presentation/37668).

[8] = Drug-drug interaction study of oral verapamil, aspirin and rivaroxaban (Example 5); format: in vivo, human; conditions: for Risk of major bleeding: e.g.
Protocol: Additional studies are performed to determine the presence of DDIs in patients treated with oral verapamil, aspirin, and rivaroxaban. […] A representative example of such a study is found in Example 1. […] Additionally, these studies show a linear relationship between the pharmacokinetic and the pharmacodynamics of rivaroxaban in subjects with normal renal function and renal insufficiency.

[9] = cited from earlier work; remark: listed apart in the source
P-gp = P-gp (Homo sapiens, UniProt P08183); conditions: in vitro; cited from earlier work
[10] = Example 1: 20 mg rivaroxaban + 360 mg verapamil vs rivaroxaban alone
[11] = Example 4: 0.5-2.5 mg rivaroxaban with verapamil (100-480 mg)

T1 sequence (P00742 235-488 limits assumed): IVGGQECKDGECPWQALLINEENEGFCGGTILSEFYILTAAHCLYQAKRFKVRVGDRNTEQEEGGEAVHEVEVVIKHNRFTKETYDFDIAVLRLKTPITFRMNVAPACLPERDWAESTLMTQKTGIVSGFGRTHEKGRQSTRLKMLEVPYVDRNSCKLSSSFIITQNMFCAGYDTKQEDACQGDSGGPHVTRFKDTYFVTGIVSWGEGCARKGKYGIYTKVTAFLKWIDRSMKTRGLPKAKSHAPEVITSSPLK
T1 sequence (P00742 41-179 partner limits assumed): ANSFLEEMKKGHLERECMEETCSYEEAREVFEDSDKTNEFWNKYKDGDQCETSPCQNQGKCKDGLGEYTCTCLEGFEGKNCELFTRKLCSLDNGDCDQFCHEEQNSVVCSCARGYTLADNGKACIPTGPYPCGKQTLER
P-gp, sequence (P08183 whole entry): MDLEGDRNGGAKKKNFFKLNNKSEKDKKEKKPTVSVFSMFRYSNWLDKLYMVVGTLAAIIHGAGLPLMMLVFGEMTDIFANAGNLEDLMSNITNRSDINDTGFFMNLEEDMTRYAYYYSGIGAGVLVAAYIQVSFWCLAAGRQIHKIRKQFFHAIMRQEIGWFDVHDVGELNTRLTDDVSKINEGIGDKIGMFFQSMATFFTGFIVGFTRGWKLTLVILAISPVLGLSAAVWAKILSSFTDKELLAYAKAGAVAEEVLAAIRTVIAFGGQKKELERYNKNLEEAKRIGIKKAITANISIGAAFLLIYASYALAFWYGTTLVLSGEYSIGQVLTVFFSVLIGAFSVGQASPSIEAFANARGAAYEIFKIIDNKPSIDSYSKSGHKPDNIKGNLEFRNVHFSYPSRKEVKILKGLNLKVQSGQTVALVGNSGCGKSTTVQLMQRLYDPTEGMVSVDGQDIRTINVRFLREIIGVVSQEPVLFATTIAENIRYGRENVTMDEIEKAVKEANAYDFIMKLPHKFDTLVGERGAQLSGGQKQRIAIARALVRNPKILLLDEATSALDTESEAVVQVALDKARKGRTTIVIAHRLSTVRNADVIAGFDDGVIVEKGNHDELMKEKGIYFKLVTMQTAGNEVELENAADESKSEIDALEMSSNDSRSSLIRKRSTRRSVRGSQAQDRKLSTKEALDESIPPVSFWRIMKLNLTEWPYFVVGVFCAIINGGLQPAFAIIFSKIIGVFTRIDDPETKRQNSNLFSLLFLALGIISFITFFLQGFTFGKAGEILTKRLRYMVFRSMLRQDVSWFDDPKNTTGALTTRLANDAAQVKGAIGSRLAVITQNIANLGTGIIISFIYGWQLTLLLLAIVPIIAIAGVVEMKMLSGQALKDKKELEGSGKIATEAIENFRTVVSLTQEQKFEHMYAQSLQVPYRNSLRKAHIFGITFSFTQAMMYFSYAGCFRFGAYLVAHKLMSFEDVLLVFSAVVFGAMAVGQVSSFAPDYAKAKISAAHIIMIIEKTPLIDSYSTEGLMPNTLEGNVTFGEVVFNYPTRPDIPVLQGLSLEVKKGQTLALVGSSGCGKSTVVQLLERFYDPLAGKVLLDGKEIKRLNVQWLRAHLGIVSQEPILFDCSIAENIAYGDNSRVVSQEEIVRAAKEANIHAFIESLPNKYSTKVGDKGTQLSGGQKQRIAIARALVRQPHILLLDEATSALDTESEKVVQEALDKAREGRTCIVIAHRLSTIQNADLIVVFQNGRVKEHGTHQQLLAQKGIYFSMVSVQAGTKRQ

O=C(NC[C@H]1CN(c2ccc(N3CCOCC3=O)cc2)C(=O)O1)c1ccc(Cl)s1 [Rivaroxaban]
CL/F/kg ([1]; Period I, rivaroxaban alone, Group 2 normal renal function (N = 13), outlier sample excluded, arithmetic mean): 0.108 (L/hr)/kg | CL/F/kg ([1]; Period III, rivaroxaban and verapamil, Group 2 normal renal function (N = 10), individual subjects): 0.0664 (L/hr)/kg and 0.0705 (L/hr)/kg and 0.0839 (L/hr)/kg | CL/F/kg ([1]; Period III, rivaroxaban and verapamil, Group 2 normal renal function (N = 10), median): 0.0664 (L/hr)/kg | t1/2 ([1]; human, in vivo, 20 mg): 9.44 h | Rivaroxaban plasma concentrations on concomitant verapamil [2]: higher rivaroxaban plasma concentrations | Risk of major bleeding, Group a ([3]; fed subjects, single 20 mg rivaroxaban, AUC about 2,026 μg·hr/L, FIG. 5): about 3% | Risk of major bleeding compared to Group a, Group b ([3]; mild renal impairment, single 20 mg rivaroxaban and 360 mg verapamil): 2.5 times higher | Risk of major bleeding compared to Group a, Group c ([3]; three subjects of Group b with the highest AUCinf): at least 5 times higher | Dose eliminated in urine as unprocessed active drug [4]: ~36% | Dose eliminated through active renal secretion [4]: 30% | Dose eliminated through glomerular filtration [4]: 6% | Dose subject to metabolic degradation via the liver's oxidative and hydrolytic pathways [4]: two-thirds | Share of rivaroxaban clearance accounted for by CYP3A4 [4]: approximately 18% | Factor Xa inhibition on concomitant verapamil (Factor Xa; [10]): increased Factor Xa inhibition | Factor Xa inhibition on concomitant verapamil (Factor Xa; [11]): increased Factor Xa inhibition | Risk of major bleeding events compared to aspirin alone ([5]; 2.5 mg rivaroxaban (BID) and aspirin): increase the risk of major bleeding events | Risk of major bleeding events compared to aspirin alone ([5]; 5 mg dose of rivaroxaban alone): increase the risk of major bleeding events | Clinical outcomes (stroke, myocardial infarction, cardiovascular death) compared to aspirin alone and rivaroxaban 5 mg BID alone ([5]; rivaroxaban 2.5 mg BID and aspirin, patients with cardiovascular disease): reduce several clinical outcomes | PT on concomitant verapamil (Prothrombin Time; [10]): prolonged PT | PT on concomitant verapamil (Prothrombin Time; [11]): prolonged PT | Relationship between plasma concentrations of rivaroxaban and PT (pharmacokinetics vs pharmacodynamics) (Prothrombin Time; subjects with normal renal function and mild renal insufficiency, Day 1 and Day 15, FIGS. 1 and 2): clear linear relationship | Geometric mean AUC of rivaroxaban for 2.5 mg dose ([6]; 2.5 mg rivaroxaban, no verapamil): 165.4 μg·h/L to 551.9 | Geometric mean AUC of rivaroxaban for 5 mg dose ([6]; 5 mg rivaroxaban, no verapamil): 1064.25 µg·h/L | Average AUC (average geometric mean), Group a ([6]; fed subjects across studies 10989 and 11938, single 20 mg rivaroxaban, FIG. 5): approximately 2,026 μg·hr/L | Upper bound of the 90% confidence interval of the steady state AUC (Label A) ([6]; patients administered 20 mg of rivaroxaban, FIG. 4): about 3,792 μg·hr/L | Upper boundary of the 90% confidence interval of the steady state AUC (Label C) ([6]; single 20 mg dose of rivaroxaban after a meal (study 10989), FIG. 4): about 2,448 μg·hr/L | Association with increased serious bleeding adverse events ([7]; concomitant administration of rivaroxaban and erythromycin): not associated with increased serious bleeding adverse events | Share of the reported rivaroxaban serious bleeding adverse events ([7]; patients concomitantly administered verapamil and rivaroxaban, who account for only 22% of the total population receiving rivaroxaban): 30% | Risk of major bleeding compared to subjects not concomitantly administered verapamil ([8]; concomitant oral verapamil, aspirin and rivaroxaban): significantly higher risk of major bleeding | Risk of major bleeding ([8]; single 1.75 mg rivaroxaban and verapamil (e.g., 360 mg), Example 5, from about 1.5-2.0%): not more than 4.5% | Risk of major bleeding ([8]; single 2.5 mg rivaroxaban, verapamil (e.g., 360 mg) and aspirin (100 mg), about 3%): not more than 4.5%

COc1ccc(NC(=O)c2ccc(C(=N)N(C)C)cc2)c(C(=O)Nc2ccc(Cl)cn2)c1 [betrixaban]
Exposure on concomitant use of P-gp inhibitors, such as verapamil ([9]; BEVYXXA label): increased exposure to betrixaban

CN1CCc2nc(C(=O)N[C@@H]3C[C@@H](C(=O)N(C)C)CC[C@@H]3NC(=O)C(=O)Nc3ccc(Cl)cn3)sc2C1 [edoxaban]
Bleeding or other adverse events on co-administration with verapamil ([9]; Mendell et al.): did not lead to any increased bleeding or other adverse events

CC[C@H]1OC(=O)[C@H](C)[C@@H](O[C@H]2C[C@@](C)(OC)[C@@H](O)[C@H](C)O2)[C@H](C)[C@@H](O[C@@H]2O[C@H](C)C[C@H](N(C)C)[C@H]2O)[C@](C)(O)C[C@@H](C)C(=O)[C@H](C)[C@@H](O)[C@]1(C)O [erythromycin]
Eliminated renally (unchanged) [4]: 2-15% | Inhibition of P-gp-mediated efflux of rivaroxaban across cell monolayers (P-gp): did not inhibit
